Test results taken from patent US11040976B2, “Substrate selective inhibitors of insulin-degrading enzyme (IDE) and uses thereof” (President and Fellows of Harvard College, priority 2015, dated 2021).
Counter-ions that a name gives are not always drawn.

Molecular target: T1, recombinant human IDE42-1019 (Homo sapiens, UniProt P14735)
T1 construct: recombinant human IDE42-1019 (R&D Systems); purchased R&D Systems
T1 sequence (P14735 42-1019): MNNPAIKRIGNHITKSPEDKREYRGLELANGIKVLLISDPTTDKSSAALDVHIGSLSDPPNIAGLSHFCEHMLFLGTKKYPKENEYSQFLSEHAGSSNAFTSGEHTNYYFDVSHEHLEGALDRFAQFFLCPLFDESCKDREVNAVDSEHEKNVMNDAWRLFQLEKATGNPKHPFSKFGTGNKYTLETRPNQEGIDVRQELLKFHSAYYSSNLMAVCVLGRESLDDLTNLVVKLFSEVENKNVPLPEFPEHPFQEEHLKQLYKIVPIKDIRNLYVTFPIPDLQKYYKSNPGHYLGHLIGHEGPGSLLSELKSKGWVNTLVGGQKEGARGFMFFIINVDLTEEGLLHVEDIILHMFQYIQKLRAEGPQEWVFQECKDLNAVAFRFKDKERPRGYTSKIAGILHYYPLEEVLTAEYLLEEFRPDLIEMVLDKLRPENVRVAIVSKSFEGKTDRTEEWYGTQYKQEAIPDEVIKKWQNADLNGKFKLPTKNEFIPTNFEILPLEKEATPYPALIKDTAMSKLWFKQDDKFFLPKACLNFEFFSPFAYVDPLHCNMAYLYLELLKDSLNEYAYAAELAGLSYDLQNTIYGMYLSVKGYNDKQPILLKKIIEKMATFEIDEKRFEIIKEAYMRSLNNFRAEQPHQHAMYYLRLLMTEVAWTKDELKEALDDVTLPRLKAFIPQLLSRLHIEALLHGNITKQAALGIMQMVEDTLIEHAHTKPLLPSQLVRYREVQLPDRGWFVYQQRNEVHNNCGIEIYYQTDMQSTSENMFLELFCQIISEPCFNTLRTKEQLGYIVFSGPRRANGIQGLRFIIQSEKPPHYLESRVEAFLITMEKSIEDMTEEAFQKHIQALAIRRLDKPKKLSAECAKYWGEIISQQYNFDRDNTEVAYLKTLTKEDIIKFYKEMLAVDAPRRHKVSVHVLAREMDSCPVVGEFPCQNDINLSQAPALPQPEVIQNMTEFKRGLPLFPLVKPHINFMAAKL
Assay: Protease assay with fluorogenic peptide substrate Mca-[…](Dnp)-OH
Type: biochemical
Conditions: fluorogenic peptide Mca-RPPGFSAFK(Dnp)-OH; for IC50: apparent IC50 for compounds with submaximal inhibition, read-out: IC50 (μM) Proteolysis; for Emax / Imax (%) Proteolysis (inhibition maximum): plateau at high inhibitor concentration; for Emax: read-out: Imax (%) Proteolysis (inhibition maximum)
Experimental: The proteases IDE42-1019, recombinant human IDE42-1019 (R&D Systems), neprilysin (R&D), and angiotensin-converting enzyme (R&D) were assayed using the fluorophore/quencher-tagged peptide substrate Mca-[…](Dnp)-OH (SEQ ID NO: 24) (R&D) according to the manufacturer's instructions and using the recommended buffers (fluorophore Mca=(7-methoxycourmarin-4-yl)acetyl and quencher Dnp=2,4-dinitrophenyl). For IDE the recommended buffer is 50 mM Tris pH 7.5, 1 M NaCl. The enzyme mixtures (48 μL) were transferred to a 96-well plate and combined with 2 μL of inhibitor in DMSO solutions, in 3-fold dilution series. The mixtures were allowed to equilibrate for 10 minutes and the enzymatic reaction was started by addition of substrate peptide in assay buffer (50 μL), mixed, and monitored on a fluorescence plate reader (excitation at 320 nm, emission at 405 nm). Similarly, thimet oligopeptidase (R&D) and neurolysin (R&D) were assayed using substrate Mca-PLGPK(Dnp)-OH (SEQ ID NO: 25) (R&D) according to the manufacturer's instructions and using the recommended buffers. Matrix metalloproteinase-1 (R&D) was activated and assayed according to the manufacturer's instructions with substrate Mca-KPLGL-Dpa-AR-NH2 (SEQ ID NO: 20) (R&D) (quencher DPA=N-3-(2,4,dinitrophenyl)-L-2,3-diaminopropionyl). All assay data points were obtained in duplicate.

Compound | IC50 [µM] | Emax [%] | Imax (%) Proteolysis (inhibition maximum) [%]
Cc1cccc(-c2ccc(C3CCN(Cc4ccc(OCc5ccccc5)cc4)CC3)cc2)c1C [A34] | > 50 | – | –
Cc1cccc(-c2ccc([C@H]3C4CN(S(=O)(=O)c5cnc6n5CCCCC6)C/C=C\CN4[C@@H]3CO)cc2)c1C (some centres unmarked) [JP-S17] | 0.09 | – | –
COc1ccccc1-c1ccc([C@@H]2[C@@H](C#N)N(C(=O)CN(C)C)[C@H]2CO)cc1 [D6] | 5 | 70 | –
Cc1cccc(-c2ccc([C@@H]3[C@@H](CO)N4CCCCN(S(=O)(=O)c5ccccc5C)C[C@@H]34)cc2)c1 [B2] | 0.4 | – | 65
Cc1cccc(-c2ccc(C3CCN(S(=O)(=O)c4cccnc4)CC3)cc2)c1C [A16] | 12 | – | –
Cc1cccc(-c2ccc(C3CCN(C(=O)c4ccc5ccccc5n4)CC3)cc2)c1C [A28] | 1 | – | –
CC(=O)Nc1ccc(S(=O)(=O)N2CCCCN3[C@H](CO)[C@@H](c4ccc(-c5cccc(C)c5C)cc4)[C@@H]3C2)c(C)c1 [JP-S12] | 0.03 | – | –
Cc1cccc(-c2ccc([C@@H]3[C@H](CO)N4CCCCN(S(=O)(=O)c5ccccc5F)C[C@@H]34)cc2)c1 [Compound 807] | – | 30 | –
Cc1ccccc1-c1ccc([C@@H]2[C@H](CO)N3C(=O)CN(C(=O)NC4CCCC4)C[C@@H]23)cc1 [compound 1576] | 2.5 | 60 | –
COc1ccccc1-c1ccc([C@H]2[C@@H](CO)N[C@@H]2CNC(=O)C2CCCC2)cc1 [D5] | 7.5 | 60 | –
Cc1cccc(-c2ccc([C@@H]3[C@@H](CO)N4CCCCN(S(=O)(=O)c5ccnn5C)C[C@@H]34)cc2)c1C [JP-S24] | 0.01 | – | –
Cc1cccc(-c2ccc(C3CCN(S(=O)(=O)c4ccc5c(c4)Cc4ccccc4-5)CC3)cc2)c1C [A08] | 25 | – | –
COC[C@@H]1[C@@H](c2ccc(-c3ccc(F)c(C)c3C)cc2)[C@@H]2CN(S(=O)(=O)c3nccn3C)CCCCN12 [JP-43-OMe] | 0.15 | – | –
Cc1cccc(-c2ccc(C3CCN(S(=O)(=O)c4cc(C(F)(F)F)cc(C(F)(F)F)c4)CC3)cc2)c1C [A18] | 12 | – | –
Cc1cccc(-c2ccc(C3CCN(C(=O)c4ccc5occc5c4)CC3)cc2)c1C [A26] | 6 | – | –
Cc1ccc(-c2ccc([C@@H]3[C@@H](CO)N4CCCCN(S(=O)(=O)c5ccccc5C)C[C@@H]34)cc2)cc1C [B3] | 0.2 | 72 | –
COc1ccc(C(=O)N2CCC(c3ccc(-c4cccc(C)c4C)cc3)CC2)c(OC)c1 [A21] | 1 | – | –

Compound | IC50 [µM] | Emax [%] | Imax (%) Proteolysis (inhibition maximum) [%]
Cc1cccc(-c2ccc(C3CCN(S(=O)(=O)c4ccc5c(ccn5C)c4)CC3)cc2)c1C [A14] | 10 | – | –
O=C(c1ccncc1)N1CC2NC(C1)C2c1ccc(/C=C/c2ccccc2)cc1 (centres unmarked) [C10] | 10 | 100 | –
Cc1cccc(-c2ccc([C@H]3[C@H](CO)N4C(=O)CN(C(=O)NC5CCCCC5)C[C@@H]34)cc2)c1 [compound 130] | > 5 | 60 | –
Cc1ccccc1S(=O)(=O)N1CCCCN2[C@H](CO)[C@@H](c3ccc(-c4cccc(F)c4F)cc3)[C@@H]2C1 [B14] | – | 90 | –
Cc1cccc(-c2ccc(C3CCN(S(=O)(=O)c4cccc(Oc5ccc(F)cc5)c4)CC3)cc2)c1C [A05] | 9 | – | –
Cc1ccccc1-c1ccc([C@@H]2[C@@H](CO)N3CCCCN(S(=O)(=O)c4ccccc4C)C[C@@H]23)cc1 [B13] | – | – | 65
Cc1cccc(-c2ccc([C@@H]3[C@@H](CF)N4CCCCN(S(=O)(=O)c5ccccc5C(F)(F)F)C[C@@H]34)cc2)c1C [JP-18 TFA salt] | 0.01 | – | –
Cc1cccc(-c2ccc(C3CCN(C(=O)C4c5ccccc5-c5ccccc54)CC3)cc2)c1C [A27] | 12 | – | –
Cc1cccc(-c2ccc(C3CCN(C(=O)Oc4ccc5ccccc5c4)CC3)cc2)c1C [A30] | 12 | – | –
Cc1cccc(-c2ccc([C@@H]3[C@@H](CO)N4CCCCN(S(=O)(=O)c5ccc(F)cc5C(F)(F)F)C[C@@H]34)cc2)c1C [JP-S15] | 0.05 | – | –
O=C(NC1CCCC1)N1CCCCN2[C@@H](CO)[C@H](c3ccc(/C=C/c4ccccc4)cc3)[C@@H]2C1 [compound 346] | 1.5 | 80 | –
Cc1cccc(-c2ccc([C@H]3C4CNC/C=C\CN4[C@@H]3CO)cc2)c1C (some centres unmarked) [Int211] | > 10 | – | –
Cc1cccc(-c2ccc([C@H]3C4CN(S(=O)(=O)c5cnc(C)n5C)C/C=C\CN4[C@@H]3CO)cc2)c1C (some centres unmarked) [JP-S18] | 0.002 | – | –
CCn1ncc(S(=O)(=O)N2C/C=C\CN3C(C2)[C@H](c2ccc(-c4cccc(C)c4C)cc2)[C@H]3CO)c1C (some centres unmarked) [JP-S19] | 0.09 | – | –
Cc1cccc(-c2ccc(C3CCN(S(=O)(=O)c4cccc5c(N(C)C)cccc45)CC3)cc2)c1C [A11] | 10 | – | –
Cc1ccccc1-c1ccc([C@@H]2[C@@H](CO)N3CCCCN(S(=O)(=O)c4ccccc4C)C[C@@H]23)cc1 [B11] | – | 65 | –
Cc1cccc(-c2ccc(C3CCN(C(=O)c4ccc5c(c4)OCCN5C)CC3)cc2)c1C [A25] | 0.9 | – | –

Continued, values first:

IC50 [µM] | Emax [%] | Imax (%) Proteolysis (inhibition maximum) [%] | Compound
2.5 | – | – | Cc1cccc(-c2ccc(N3CCN(C(=O)C4CCCCC4)CC3)cc2)c1C [J9]
0.3 | – | – | Cc1ccccc1S(=O)(=O)N1CCC(c2ccc(-c3cccc(C)c3C)cc2)CC1 [J6]
0.4 | – | – | COc1cccc(-c2ccc([C@@H]3[C@@H](CO)N4CCCCN(S(=O)(=O)c5ccccc5C)C[C@@H]34)cc2)c1 [K3]
– | 65 | – | COc1cccc(-c2ccc([C@H]3C4CN(S(=O)(=O)c5ccccc5C)CCCCN4[C@@H]3CO)cc2)c1 (some centres unmarked) [K3]
0.008 | – | – | Cc1c(F)ccc(-c2ccc([C@@H]3[C@@H](CO)N4CCCCN(S(=O)(=O)c5cnc(C)n5C)C[C@@H]34)cc2)c1C [JP-42]
0.05 | – | – | Cc1ccccc1S(=O)(=O)N1CCCCN2[C@H](CF)[C@@H](c3ccc(-c4cccc(C)c4C)cc3)[C@@H]2C1 [K28]
0.3 | 65 | – | COc1ccccc1-c1ccc([C@H]2C3CN(S(=O)(=O)c4ccccc4C)CCCCN3[C@@H]2CO)cc1 (some centres unmarked) [K14]
2.5 | – | – | Cc1ccccc1S(=O)(=O)N1CCCCN2[C@H](CO)[C@@H](c3ccc(-c4ccc5c(c4)OCO5)cc3)[C@@H]2C1 [K5]
0.01 | – | – | Cc1c(Cl)cccc1-c1ccc([C@H]2C3CN(S(=O)(=O)c4ccccc4C(F)(F)F)C/C=C\CN3[C@@H]2CO)cc1 (some centres unmarked) [K22]
– | 65 | – | Cc1ccccc1S(=O)(=O)N1CCCCN2C(C1)[C@H](c1ccc(-c3cccc(F)c3)cc1)[C@H]2CO (some centres unmarked) [K11]
2.5 | – | – | Cc1ccccc1S(=O)(=O)NCCc1ccc(-c2cccc(C)c2C)cc1 [J3]
0.25 | – | – | Cc1cccc(-c2ccc([C@@H]3[C@@H](CO)N4CCCCN(S(=O)(=O)c5ccccc5C)C[C@@H]34)cc2)c1 [BRD-297]
– | 100 | – | Cc1ccccc1S(=O)(=O)N1CCCCN2C(C1)[C@H](c1ccc(-c3cnc(F)c(C)c3)cc1)[C@H]2CO (some centres unmarked) [K26]
– | 72 | – | Cc1ccc(-c2ccc([C@H]3C4CN(S(=O)(=O)c5ccccc5C)CCCCN4[C@@H]3CO)cc2)cc1C (some centres unmarked) [K4]
– | 65 | – | Cc1ccccc1S(=O)(=O)N1CCCCN2C(C1)[C@H](c1ccc(-c3ccccc3)cc1)[C@H]2CO (some centres unmarked) [K7]
0.1 | – | – | Cc1c(-c2ccc([C@@H]3[C@@H](CO)N4CCCCN(S(=O)(=O)c5ccccc5C(F)(F)F)C[C@@H]34)cc2)cccc1C(F)(F)F [K19]
0.004 | – | – | Cc1c(F)ccc(-c2ccc([C@@H]3[C@@H](CO)N4CCCCN(S(=O)(=O)c5nccn5C)C[C@@H]34)cc2)c1C [JP-43]
0.9 | – | – | COc1ccc(-c2ccc([C@@H]3[C@@H](CO)N4CCCCN(S(=O)(=O)c5ccccc5C)C[C@@H]34)cc2)c(C)c1 [K17]
0.8 | – | – | Cc1ccccc1S(=O)(=O)N1CCCCN2[C@H](CO)[C@@H](c3ccc(-c4cccc(F)c4F)cc3)[C@@H]2C1 [K15]
